The test system of this assay is tumor-infiltrating immune cells. Description: Flow cytometric analysis of immune cells in tumor and organs. It is filed as in vivo, mice. How it is done: (FIGS. 11A-B) Single cells were conducted from MC38 (FIG. 11A) or TC-1 (FIG. 11B) tumor tissues after 3 days of β-lap treatment. The frequency of CD11b+ Gr1+ cells were then analyzed by flow cytometry. (FIGS. 11C-D) C57BL/6 WT mice (n=5/group) were inoculated subcutaneously (s.c.) with 6×10^5 MC38 (FIG. 11C) or 1×10^5 TC-1 (FIG. 11D) cells and treated intratumorally (i.t.) with 0.3 (mg) of β-lap or vehicle on day 9, day 12, and day 15. Anti-Ly6G blocking Ab (200 μg) were intraperitoneally administered twice a week, starting on day 8. Tumor growth was monitored twice a week. Data are shown as mean±SEM from two to three independent experiments. **P<0.01, ***P<0.001, ****P<0.0001 determined by two-way ANOVA.
(FIG. 18A) B16 NQO1 #1 cells were subcutaneously transplanted into C57BL/6 WT and Rag1KO mice (n=5/group), respectively. Tumor bearing mice were treated with β-lap (0.3 mg, i.t.) every other day for four times. (FIG. 18B) Changes of the immune cells in the tumor microenvironment 7 days after β-lap treatment. […] 7 days after the last treatment, tumor tissue was removed and digested, and immune cells were analyzed with flow cytometer (unpaired student t-test was used to analyze the significance of changes, *P<0.05, **P<0.01). […]
6×10^5 MC38 cells were subcutaneously transplanted into C57BL/6 mice (n=3/group). […] (FIG. 23B) Quantification of immune populations from vehicle and IB-DNQ treated tumors. […] CFSE labeled splenocytes were treated with lethal dose IB-DNQ for 4 h followed by washing and stimulation with anti-CD3 (1 μg/ml) and anti-CD28 (2 μg/ml) for 48 h, proliferative CD8 T cells were then analyzed by flow cytometry assay. […] 24 h later, cell death was analyzed by flow cytometry. […]
Naïve (n=5/group) and IB-DNQ-cured MC38 tumor-free (n=7/group) C57BL/6 mice were re-challenged subcutaneously with 3×10^6 MC38 cells on the opposite site from the primary tumor 60 days after complete rejection. […] (FIG. 26F) DCs from LNs of tumor-free (TF) or tumor-bearing mice were stimulated with antigen induced by IB-DNQ (1 μM) for 5 h, then CD44 expression on DCs was assessed.
In general terms: In flow cytometry, cells or beads pass a laser one at a time.

Turning to `CC1(C)CCC2=C(O1)c1ccccc1C(=O)C2=O` [β-lap, β-lapachone], the “T cells in treated tumors” value (MC38, 7 days after β-lap 0.3 mg i.t. two times) is “increase in CD4^+ and CD8^+ T cells”. Where the note is “MC38-OVA, 12 days after initial treatment”, the “CD45+ cells, CD8+ T cells and CD8+ T cell:Treg cell ratio in tumor tissues” value is “significant increase”. Further, the “tumor-infiltrating neutrophils (CD11b+Gr1+)” value (after 3 days of β-lap treatment) is given as “significantly increased”.

The values are drawn from patent US20220160703A1, “TUMOR-SELECTIVE COMBINATION THERAPY” (The Board of Regents of The University of Texas System, priority 2019, published 2022).
